Measurements published in US20240082409A1, “Modified peptide ligands for stable delivery of highly potent payloads to tumors: Method of making and using same” (priority 2020, published 2024).
Several values for one entry are separate records, joined by “and”; a condition that tells them apart may be missing. Equal values may be shown once. Entries after “also recorded” stand apart in the source; their conditions may differ. Numbered stars: 1 amine (or outer) side, 2 acyl side, 3 side chain; on linkers, the order of the positions; unused ones are H or OH. Bridge positions count the residues as written; N and C are the ends. Square brackets hold non-standard residues; d marks the D form. Peptide text beside a SMILES is read from it. I, II: the chains in the order shown. * marks the point of attachment. X1 = O=C([C@@H](CCCCn1nnc2c1-c1ccccc1N([*:3])Cc1ccccc1-2)N[*:1])[*:2]; Dolaproine = CO[C@@H]([C@@H]1CCCN1)[C@@H](C)C(=O)O; X3 = O=C(CCC(=O)[*:1])NCCOCCOCCOCCC(=O)[*:2]; Dil = CC[C@H](C)[C@H](NC)[C@@H](CC(=O)O)OC; PABC = O=C(OCc1ccc(N[*:1])cc1)[*:2]; X2 = C[C@@H](N*)[C@@H](O)c1ccccc1; d3Pal = N[C@H](Cc1cccnc1)C(=O)O; Cit = NC(=O)NCCC[C@H](N)C(=O)O; pGlu = O=C1CC[C@@H](C(=O)O)N1; NMeV = CN[C@H](C(=O)O)C(C)C

How the values were obtained:
[1] = In-vitro potency of LHRH-based drug conjugates (summary statement); details: cell line not stated
HCC1806 TNBC cell line = test: MTS proliferation (viability) assay, HCC1806; assay type: cell-based, human
Procedure: (§1) FIG. 2A depicts the viability of HCC1806 and BT-549 TNBC cell lines as well as normal 3T3 mouse fibroblasts in presence of peptide drug conjugate OTS-P22 at increasing concentrations (Log 0.165-100 nM). Cells were plated at 10,000 cells/well on 96-well plates in RPMI or DMEM medium (pH 7.4) with 10% FBS or 10% BCS and after attachment they were washed and incubated with OTS-P22 in complete medium without antibiotics for 3 hours. After 3 hours, cells were washed and then incubated in complete medium without antibiotics for an additional 93 hours. At the end of the incubation period cells were washed and cell viability was measured using MTS assay according to the manufacturer's instructions (Promega, Madison, WI). Data shown are percentage mean value and standard error of triplicate measurements. Differences between mean values were evaluated by one-way ANOVA followed by Tukey's honestly significant difference procedure. **<0.01 were highly significant.

HCC1806 TNBC CDX = test: Tumor growth of HCC1806 xenografts in female SCID mice; assay type: in vivo
Procedure: FIG. 4A depicts tumor volume in female SCID mice bearing HCC1806 TNBC CDX during treatment with saline; OTS-P22 or MMAE at a single i.v. injection of 0.5 μmol/kg on day 0 (arrow). Tumor volume values in mm^3 are presented as mean±standard error of 10 mice per group. Statistical analysis was performed using ANOVA followed by Tukey's multiple comparison test. ***<0.001, **<0.01, *<0.05 were significant.

[2] = Animal weight, hematology and normal organ histology in treated SCID mice; assay type: in vivo; details: for effect on animal weight: single i.v. injection 0.5 μmol/kg, SCID mice bearing HCC1806
Text: FIG. 4B depicts animal weight in female SCID mice bearing HCC1806 TNBC CDX during treatment with saline; OTS-P22 or MMAE at a single i.v. injection of 0.5 μmol/kg on day 0 (arrow). […] are presented as mean±standard error of 10 mice per group.
FIG. 5A depict hematology parameters of saline- and OTS-P22 treated SCID mice bearing HCC1806 TNBC xenografts (n=10) as described in FIG. 4A and into in accordance with the preferred embodiment of the present invention;
FIG. 5B depict representative hematoxylin-eosin staining slides of normal organs from saline- and OTS-P22 treated SCID mice bearing HCC1806 TNBC xenografts as described in FIG. 4A and into in accordance with the preferred embodiment of the present invention;

[3] = In-vitro stability in human plasma (RP-HPLC/mass spectrometry); assay type: in vitro ADME
Procedure: (§2) FIGS. 7A, 7B, 7C and 7D depicts the in-vitro stability of OTS-P23 in human plasma at 0, 2, 8 and 24 hours incubation times respectively in accordance with a preferred embodiment of the present invention. OTS-P23 is incubated at 100 μg/100 μl in 80% plasma from human or for 0, 2, 8 or 24 hours. Solutions are then centrifuged using Amicon centrifugal devices (cut-off 10 KDa) and 20 μl of the lower molecular weight fractions are analyzed by RP-HPLC/mass spectrometry. […] A minor peak (2.26%) was detected with a molecular weight of 2240.3 Dalton (metabolite).
as §2, with “FIGS. 13A, 13B, 13C” for “FIGS. 7A, 7B, 7C”, “and 13D” for “and 7D”, “of OTS-P28” for “of OTS-P23”

[4] = test system: caspase activity in HCC1806 cells; details: 100 nM, 48 hours
Procedure: At the end of the incubation, cells were washed three times, lyzed and proteins quantified using Bradford reagents. Apoptosis assay was performed using 100 μg proteins according to ApoTarget Caspase Colorimetric Protease Assay Sampler Kit instructions (Invitrogen, Carlsbad, CA).

[5] = test system: normal 3T3 mouse fibroblasts; details: 0.165-100 nM, 3 hours exposure, then 93 hours, MTS
Procedure: as §1

For “Glp-His-Trp-DSer-Tyr-DLys[-dPEG5-Val-Cit-PABC-MMAE]-Leu-Arg-Pro-NHEt [OTS-P23b]”, the “in-vitro potency (in words)” value [1] was “higher potency at low nanomolar concentrations”.

With “Glp-His-DPal-Ser-Tyr-DCys[Val-Cit-PABC-MMAE]-Leu-Arg-Pro-DAla-NH2 [OTS-P26]” the “effect on viability of HCC1806 TNBC cells (in words)” value (HCC1806 TNBC cell line; MTS proliferation assay) was “dose-dependent manner” and the “in-vitro potency (in words)” value [1] was “higher potency at low nanomolar concentrations”.

For `CC[C@H](C)[C@@H]([C@@H](CC(=O)N1CCC[C@H]1[C@H](OC)[C@@H](C)C(=O)N[C@H](C)[C@@H](O)c1ccccc1)OC)N(C)C(=O)[C@@H](NC(=O)[C@@H](NC)C(C)C)C(C)C` [MMAE, monomethyl auristatin E, reference compound] (H-[NMeV]V[Dil][Dolaproine]-X2), the “effect on tumor growth (in words)” value (HCC1806 TNBC CDX; single i.v. injection 0.5 μmol/kg, end of 21 days study) was “did not show any significant tumor growth inhibition; also recorded: no significant effect” and the “effect on animal weight” value [2] was “Neither treatment with OTS-P22 or MMAE affected animal weight”.

For “Glp-His-DPal-Ser-Tyr-DLys[dPEG8-Val-Cit-PABC-MMAE]-Leu-Arg-Pro-DAla-NH2 [OTS-P23]”, the “in-vitro potency (in words)” value [1] was “higher potency at low nanomolar concentrations”.

With “Glp-His-DPal-Ser-Tyr-DCys[dPEG8-Val-Cit-PABC-MMAE]-Leu-Arg-Pro-DAla-NH2 [OTS-P28]” the “anti-proliferative activity in-vitro on HCC1806 TNBC cell line (in words)” value (HCC1806 TNBC cell line) was “low nanomolar concentrations”, the “in-vitro potency (in words)” value [1] was “higher potency at low nanomolar concentrations” and the “stability in human plasma (in words)” value ([3]; human plasma) was “highly stable”.

For “Glp-DHis-Trp-DSer-Tyr-DLys[Glut-Val-Cit-PABC-MMAE]-Leu-Arg-Pro-DAla-NH2 [OTS-P31]”, the “in-vitro potency (in words)” value [1] was “higher potency at low nanomolar concentrations”.

With `CC[C@H](C)[C@@H]([C@@H](CC(=O)N1CCC[C@H]1[C@H](OC)[C@@H](C)C(=O)N[C@H](C)[C@@H](O)c1ccccc1)OC)N(C)C(=O)[C@@H](NC(=O)[C@H](C(C)C)N(C)C(=O)OCc1ccc(NC(=O)[C@H](CCCNC(N)=O)NC(=O)[C@@H](NC(=O)CCOCCOCCOCCNC(=O)CCC(=O)N2Cc3ccccc3-c3nnn(CCCC[C@@H](NC(=O)[C@H](Cc4ccc(O)cc4)NC(=O)[C@H](CO)NC(=O)[C@@H](Cc4cccnc4)NC(=O)[C@H](Cc4c[nH]cn4)NC(=O)[C@@H]4CCC(=O)N4)C(=O)N[C@@H](CC(C)C)C(=O)N[C@@H](CCCNC(=N)N)C(=O)N4CCC[C@H]4C(=O)N[C@H](C)C(N)=O)c3-c3ccccc32)C(C)C)cc1)C(C)C` [OTS-P22, Glp-His-DPal-Ser-Tyr-DLys[dPEG3-Val-Cit-PABC-MMAE]-Leu-Arg-Pro-DAla-NH2] (I: [pGlu]H[d3Pal]SY[X1]LRP[dA]-NH2 / II: V[Cit][PABC][NMeV]V[Dil][Dolaproine]-X2; linker I:6-II:N via X3) the “potency relative to AEZS-108 in term of in-vivo tumor growth inhibition of HCC1806 xenografts” value (HCC1806 TNBC CDX; compared with first generation conjugate AEZS-108) was “at least 16 times”, the partial response (HCC1806 TNBC CDX; single i.v. 0.5 μmol/kg, 21 days, 80.5% in 2/10 mice, 88.5% in 1/10 mice) was 80.5% and 88.5% and the tumor growth inhibition (HCC1806 TNBC CDX; single i.v. injection 0.5 μmol/kg (1.435 mg/kg), 21 days post-treatment, SCID mice) was 100%. For the same compound, the “mice showing complete response” value (HCC1806 TNBC CDX; single i.v. injection 0.5 μmol/kg, 21 days post-treatment, 10 mice per group) was 7/10, the “in-vitro potency (in words)” value [1] was “higher potency at low nanomolar concentrations” and the “minor peak (metabolite, 2240.3 Dalton)” value ([3]; 80% human plasma, 8 hours incubation) was 2.26%. The conjugate still intact ([3]; 80% human plasma, 8 hours incubation, 100 μg/100 μl) was 97.74%, the remaining at 8 h, 100 μg/100 μl ([3]; 80% human plasma, 8 hours incubation, 100 μg/100 μl, read-out: conjugate still intact) was 97.7% and the effect on hematology ([2]; SCID mice bearing HCC1806 xenografts) was “No signifcant effect”. For the same compound, the “effect on normal tissue histology” value ([2]; SCID mice bearing HCC1806 xenografts, hematoxylin-eosin) was “No signifcant effect”, the “effect on animal weight” value [2] was “No signifcant effect; also recorded: Neither treatment with OTS-P22 or MMAE affected animal weight” and the “increase of caspase activity as compared to saline-treated cells” value [4] was 1.5 fold. For the same compound, the “effect on viability of 3T3 normal fibroblasts” value [5] was “no effect”.
